Reference: ChEMBL document CHEMBL1201862, “PubChem BioAssay data set” (2004)
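Briefly, cells in 96-well plates were exposed to five compound concentrations for 48 h, and endpoints were estimated by linear interpolation. GI50: concentration for 50% inhibition of growth.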 Activity calls are given as the source filed them. Rule as the data show it: active = GI50 up to about 1.1 µM and inactive = higher.

Key:
Experiment in all cases: NCI-60 cell line screen, 48 h
SK-MEL-28 = system: SK-MEL-28
RPMI-8226 = system: RPMI-8226
SN12C = system: SN12C
RXF 393 = system: RXF 393
CCRF-CEM = system: CCRF-CEM
IGROV-1 = system: IGROV-1
SK-MEL-5 = system: SK-MEL-5
CAKI-1 = system: CAKI-1
OVCAR-4 = system: OVCAR-4
SF-268 = system: SF-268
SR = system: SR
UACC-62 = system: UACC-62
HOP-92 = system: HOP-92
OVCAR-3 = system: OVCAR-3
SF-295 = system: SF-295
SK-MEL-2 = system: SK-MEL-2

Measured: GI50

COC(=O)N/N=C(\c1nc2ccc(Cl)cc2nc1O)C(O)c1ccc([N+](=O)[O-])cc1 (configuration not stated)
inactive: SK-MEL-28 > 100 µM | RPMI-8226 > 100 µM | SN12C > 100 µM | RXF 393 > 100 µM | CCRF-CEM 89.7 µM | IGROV-1 > 100 µM | SK-MEL-5 > 100 µM | CAKI-1 > 100 µM | OVCAR-4 > 100 µM | SF-268 > 100 µM | SR 30.5 µM | UACC-62 > 100 µM | HOP-92 > 100 µM | OVCAR-3 > 100 µM | SF-295 > 100 µM

CC(C)(C)OC(=O)C1=C(O)C(C(=O)OC(C)(C)C)C23CCCCC12C(C(=O)OC(C)(C)C)C(O)=C3C(=O)OC(C)(C)C (configuration not stated)
inactive: RPMI-8226 > 100 µM | SN12C > 100 µM | RXF 393 > 100 µM | CCRF-CEM > 100 µM | IGROV-1 > 100 µM | SK-MEL-5 > 100 µM | CAKI-1 > 100 µM | SK-MEL-2 > 100 µM | OVCAR-4 > 100 µM | SF-268 > 100 µM | SR > 100 µM | UACC-62 > 100 µM | HOP-92 > 100 µM | OVCAR-3 > 100 µM | SF-295 > 100 µM

N#CCC(=O)N/N=C(\C(=O)Nc1ccc(Cl)c(Cl)c1)C1CN(c2ccccc2)N=C1N (configuration not stated)
inactive: SK-MEL-28 > 100 µM | RPMI-8226 > 100 µM | SN12C > 100 µM | RXF 393 > 100 µM | CCRF-CEM 54 µM | IGROV-1 > 100 µM | SK-MEL-5 > 100 µM | SK-MEL-2 > 100 µM | OVCAR-4 > 100 µM | SF-268 > 100 µM | SR > 100 µM | UACC-62 > 100 µM | HOP-92 > 100 µM | OVCAR-3 > 100 µM | SF-295 > 100 µM

N#Cc1c(N)c(C(=O)O)nn(-c2cccc(C(F)(F)F)c2)c1=O
inactive: SK-MEL-28 > 100 µM | RPMI-8226 88.9 µM | SN12C > 100 µM | RXF 393 52.5 µM | CCRF-CEM > 100 µM | IGROV-1 > 100 µM | SK-MEL-5 53 µM | CAKI-1 > 100 µM | SK-MEL-2 > 100 µM | SF-268 > 100 µM | SR > 100 µM | UACC-62 76.9 µM | HOP-92 43.4 µM | OVCAR-3 > 100 µM | SF-295 > 100 µM

Cc1c2c(cc3c(=O)ccn(CCN(C)C)c13)c(=O)ccn2CCN(C)C
inactive: SK-MEL-28 20.4 µM | SN12C 11.2 µM | RXF 393 14.2 µM | CCRF-CEM 5.87 µM | IGROV-1 12.4 µM | SK-MEL-5 20 µM | CAKI-1 16.6 µM | SK-MEL-2 21 µM | OVCAR-4 4.4 µM | SF-268 6.93 µM | SR 10.6 µM | UACC-62 17.2 µM | HOP-92 6.1 µM | OVCAR-3 14.2 µM | SF-295 7.31 µM

O=C1C2=C(c3ccccc31)C(c1ccccc1Cl)NC(S)=N2 (configuration not stated)
inactive: SK-MEL-28 55.5 µM | RPMI-8226 37.4 µM | SN12C 41.3 µM | CCRF-CEM 48.2 µM | IGROV-1 56.8 µM | SK-MEL-5 20.2 µM | CAKI-1 38.2 µM | SK-MEL-2 29.1 µM | OVCAR-4 35.6 µM | SF-268 51.5 µM | UACC-62 34.6 µM | HOP-92 16.5 µM | OVCAR-3 38.1 µM | SF-295 51.1 µM

C=C1C(=O)OC2/C=C(\C=O)CC/C=C(\C)C(O)C[C@@H]12 (some centres not stated)
inactive: SK-MEL-28 4.42 µM | RPMI-8226 1.95 µM | SN12C 7.52 µM | RXF 393 2.84 µM | CCRF-CEM 2.57 µM | IGROV-1 17.5 µM | SK-MEL-5 9.27 µM | CAKI-1 > 10 µM | SK-MEL-2 10.5 µM | OVCAR-4 14.1 µM | SF-268 8.61 µM | SR 2.8 µM | UACC-62 5.87 µM | HOP-92 5.9 µM | OVCAR-3 9.46 µM | SF-295 13.7 µM

Cc1ccccc1NC(=O)C(=O)C(C#N)c1ccccc1C (configuration not stated)
inactive: SK-MEL-28 > 100 µM | RPMI-8226 > 100 µM | SN12C > 100 µM | RXF 393 > 100 µM | CCRF-CEM 30.4 µM | IGROV-1 > 100 µM | SK-MEL-5 > 100 µM | CAKI-1 > 100 µM | SK-MEL-2 > 100 µM | SF-268 > 100 µM | SR > 100 µM | UACC-62 > 100 µM | HOP-92 > 100 µM | OVCAR-3 > 100 µM | SF-295 > 100 µM

O=S1(=O)OCCOS(=O)(=O)C1(Br)Br
inactive: SK-MEL-28 > 100 µM | RPMI-8226 > 100 µM | SN12C > 100 µM | CCRF-CEM > 100 µM | SK-MEL-5 > 100 µM | CAKI-1 > 100 µM | SK-MEL-2 > 100 µM | OVCAR-4 > 100 µM | SF-268 > 100 µM | SR > 100 µM | UACC-62 > 100 µM | HOP-92 > 100 µM | OVCAR-3 > 100 µM | SF-295 > 100 µM

Cc1cc(=O)oc2c(C)c(OCCCOc3ccc4c(C)cc(=O)oc4c3C)ccc12
inactive: SK-MEL-28 > 100 µM | RPMI-8226 > 100 µM | CCRF-CEM > 100 µM | IGROV-1 > 100 µM | SK-MEL-5 > 100 µM | CAKI-1 > 100 µM | SK-MEL-2 > 100 µM | SF-268 > 100 µM | SR > 100 µM | UACC-62 > 100 µM | HOP-92 65.9 µM | OVCAR-3 > 100 µM | SF-295 > 100 µM

C=CCn1c2c(sc1=S)C(S)NC=N2 (configuration not stated)
inactive: SK-MEL-28 > 100 µM | RPMI-8226 38.5 µM | SN12C > 100 µM | RXF 393 > 100 µM | CCRF-CEM 95.9 µM | IGROV-1 88.5 µM | SK-MEL-5 54.5 µM | CAKI-1 > 100 µM | SK-MEL-2 > 100 µM | OVCAR-4 > 100 µM | SF-268 4.65 µM | SR 91.8 µM | UACC-62 27.5 µM | HOP-92 16.8 µM | OVCAR-3 94.2 µM | SF-295 61.2 µM

O=C1C2C(C(=O)N1c1ccccc1)C1c3ccccc3C2C2C(=O)N(c3ccccc3)C(=O)C21 (configuration not stated)
inactive: SK-MEL-28 26.2 µM | RPMI-8226 4.39 µM | SN12C 5.48 µM | RXF 393 6.04 µM | CCRF-CEM 4.9 µM | IGROV-1 > 100 µM | SK-MEL-5 4.44 µM | CAKI-1 11.3 µM | SK-MEL-2 2.54 µM | OVCAR-4 22.8 µM | SF-268 5.56 µM | UACC-62 6.78 µM | HOP-92 6.82 µM | OVCAR-3 20.7 µM | SF-295 3.48 µM

O=S1OC2(c3ccccc3-c3ccccc32)c2ccccc21 (configuration not stated)
inactive: SK-MEL-28 > 100 µM | RPMI-8226 > 100 µM | SN12C > 100 µM | RXF 393 53 µM | CCRF-CEM 72.8 µM | IGROV-1 > 100 µM | SK-MEL-5 > 100 µM | OVCAR-4 > 100 µM | SR > 100 µM | UACC-62 > 100 µM | OVCAR-3 > 100 µM | SF-295 > 100 µM

CNc1ccc(/C=C2\C=Cc3ccccc32)cc1
inactive: SK-MEL-28 88.5 µM | RPMI-8226 54.3 µM | SN12C 29.9 µM | RXF 393 20.8 µM | CCRF-CEM 43.4 µM | IGROV-1 24.2 µM | SK-MEL-5 26.5 µM | CAKI-1 30.1 µM | SK-MEL-2 18.8 µM | OVCAR-4 26.8 µM | SF-268 5.55 µM | SR 53.2 µM | UACC-62 20.1 µM | HOP-92 19.1 µM | OVCAR-3 21.2 µM | SF-295 31.3 µM

COC(=O)c1oc([N+](=O)[O-])c(-c2ccccc2)c1-c1ccccc1
inactive: SK-MEL-28 > 100 µM | RPMI-8226 > 100 µM | SN12C > 100 µM | CCRF-CEM 67.9 µM | IGROV-1 > 100 µM | SK-MEL-5 48.3 µM | CAKI-1 > 100 µM | SK-MEL-2 > 100 µM | OVCAR-4 > 100 µM | SF-268 > 100 µM | UACC-62 67 µM | HOP-92 > 100 µM | OVCAR-3 > 100 µM | SF-295 > 100 µM

FC(F)(F)C1(Br)C(c2ccccc2)=C1c1ccccc1
inactive: SK-MEL-28 18.9 µM | RPMI-8226 19.3 µM | SN12C 14 µM | RXF 393 15.5 µM | CCRF-CEM 4.43 µM | IGROV-1 24.7 µM | SK-MEL-5 15.4 µM | CAKI-1 23.8 µM | SK-MEL-2 15.9 µM | OVCAR-4 18.8 µM | SF-268 19.3 µM | SR 5.11 µM | UACC-62 15.8 µM | HOP-92 16.7 µM | OVCAR-3 15.7 µM | SF-295 13 µM

O=CC[C@H]1CCc2ccccc2C12CCC(=O)CC2
inactive: RPMI-8226 35.4 µM | SN12C 67.8 µM | CCRF-CEM 39.8 µM | IGROV-1 > 100 µM | SK-MEL-5 92.9 µM | CAKI-1 > 100 µM | SK-MEL-2 > 100 µM | OVCAR-4 > 100 µM | SF-268 76.6 µM | UACC-62 92 µM | HOP-92 68.4 µM | OVCAR-3 > 100 µM | SF-295 > 100 µM

Clc1ccc2cccc3c2c1C1OC3c2ccccc21 (configuration not stated)
inactive: SK-MEL-28 > 100 µM | RPMI-8226 > 100 µM | SN12C > 100 µM | RXF 393 55.5 µM | CCRF-CEM > 100 µM | IGROV-1 > 100 µM | SK-MEL-2 > 100 µM | SF-268 > 100 µM | SR > 100 µM | UACC-62 > 100 µM | HOP-92 70.8 µM | OVCAR-3 > 100 µM | SF-295 > 100 µM
